Data set [1] addresses T1, Activated CDC42 kinase 1 (Homo sapiens, UniProt Q07912). As to the kind of experiment: Inhibition of N-terminal His6-tagged ACK1 expressed in baculovirus infected Hi5 cells assessed as inhibition of autophosphorylation after 2 hrs by ELISA. The arrangement: species or system BTI-TN-5B1-4. (ELISA stands for enzyme-linked immunosorbent assay.)
Target sequence in this assay (Q07912 whole entry): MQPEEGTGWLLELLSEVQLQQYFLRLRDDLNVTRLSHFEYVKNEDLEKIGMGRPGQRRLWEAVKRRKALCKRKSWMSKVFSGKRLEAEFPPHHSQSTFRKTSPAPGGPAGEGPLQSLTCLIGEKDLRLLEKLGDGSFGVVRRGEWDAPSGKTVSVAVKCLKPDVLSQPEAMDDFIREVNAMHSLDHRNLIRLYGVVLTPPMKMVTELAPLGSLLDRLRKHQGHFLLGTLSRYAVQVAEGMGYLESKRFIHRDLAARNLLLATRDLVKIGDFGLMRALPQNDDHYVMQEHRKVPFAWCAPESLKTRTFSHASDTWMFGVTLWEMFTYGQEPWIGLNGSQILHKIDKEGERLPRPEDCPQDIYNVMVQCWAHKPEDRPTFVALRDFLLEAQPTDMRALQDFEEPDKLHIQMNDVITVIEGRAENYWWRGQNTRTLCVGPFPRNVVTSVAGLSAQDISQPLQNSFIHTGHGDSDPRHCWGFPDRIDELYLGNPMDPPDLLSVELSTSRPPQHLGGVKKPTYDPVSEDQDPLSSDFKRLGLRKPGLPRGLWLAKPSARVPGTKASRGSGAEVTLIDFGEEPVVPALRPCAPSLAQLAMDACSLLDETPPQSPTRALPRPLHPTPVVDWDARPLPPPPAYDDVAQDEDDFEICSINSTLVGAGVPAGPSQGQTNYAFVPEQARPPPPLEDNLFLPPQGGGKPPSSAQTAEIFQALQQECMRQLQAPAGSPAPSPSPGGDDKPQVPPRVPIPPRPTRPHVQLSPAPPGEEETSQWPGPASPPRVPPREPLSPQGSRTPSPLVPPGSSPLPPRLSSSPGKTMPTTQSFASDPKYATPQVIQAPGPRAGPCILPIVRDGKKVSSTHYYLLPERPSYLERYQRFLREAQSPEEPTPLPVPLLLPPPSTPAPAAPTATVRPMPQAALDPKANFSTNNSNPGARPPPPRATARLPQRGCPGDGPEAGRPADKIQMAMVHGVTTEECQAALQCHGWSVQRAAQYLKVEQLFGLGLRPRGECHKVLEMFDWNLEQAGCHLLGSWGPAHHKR
Data set [2] can be described thus: Clearance in Sprague-Dawley rat at 1 mg/kg, iv. The class given is ADME, organism-based. Further details: dose 1 mg/kg, route intravenous. Particulars: in vivo.
A short description of data set [3]: Volume of distribution at steady state in Sprague-Dawley rat at 1 mg/kg, iv. The class given is ADME, organism-based. Further details: dose 1 mg/kg, route intravenous. To be noted: in vivo, read-out: Vdss.
Data set [4] can be described thus: Mean residence time in Sprague-Dawley rat at 1 mg/kg, iv. The class given is ADME, organism-based. Particulars: in vivo. Further details: dose 1 mg/kg, route intravenous.
Data set [5] deals with Tyrosine-protein kinase Lck (Homo sapiens, UniProt P06239). As to the kind of experiment: Inhibition of LCK.
Tyrosine-protein kinase Lck, sequence (P06239 whole entry): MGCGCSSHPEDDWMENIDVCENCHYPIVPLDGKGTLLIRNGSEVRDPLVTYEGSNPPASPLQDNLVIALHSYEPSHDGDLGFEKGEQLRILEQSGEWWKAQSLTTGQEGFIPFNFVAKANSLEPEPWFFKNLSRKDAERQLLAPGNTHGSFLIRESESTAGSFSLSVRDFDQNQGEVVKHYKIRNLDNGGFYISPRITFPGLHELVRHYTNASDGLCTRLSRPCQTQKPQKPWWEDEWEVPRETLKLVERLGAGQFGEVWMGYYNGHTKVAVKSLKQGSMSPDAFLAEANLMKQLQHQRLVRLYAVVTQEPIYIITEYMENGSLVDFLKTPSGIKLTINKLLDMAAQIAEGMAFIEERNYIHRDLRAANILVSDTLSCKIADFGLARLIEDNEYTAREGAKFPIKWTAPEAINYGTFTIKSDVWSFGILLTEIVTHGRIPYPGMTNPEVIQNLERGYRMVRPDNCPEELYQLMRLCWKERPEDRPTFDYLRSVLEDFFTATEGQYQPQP
The target in data set [6] is T2, Tyrosine-protein kinase JAK3 (Homo sapiens, UniProt P52333).
T2 sequence (P52333 whole entry): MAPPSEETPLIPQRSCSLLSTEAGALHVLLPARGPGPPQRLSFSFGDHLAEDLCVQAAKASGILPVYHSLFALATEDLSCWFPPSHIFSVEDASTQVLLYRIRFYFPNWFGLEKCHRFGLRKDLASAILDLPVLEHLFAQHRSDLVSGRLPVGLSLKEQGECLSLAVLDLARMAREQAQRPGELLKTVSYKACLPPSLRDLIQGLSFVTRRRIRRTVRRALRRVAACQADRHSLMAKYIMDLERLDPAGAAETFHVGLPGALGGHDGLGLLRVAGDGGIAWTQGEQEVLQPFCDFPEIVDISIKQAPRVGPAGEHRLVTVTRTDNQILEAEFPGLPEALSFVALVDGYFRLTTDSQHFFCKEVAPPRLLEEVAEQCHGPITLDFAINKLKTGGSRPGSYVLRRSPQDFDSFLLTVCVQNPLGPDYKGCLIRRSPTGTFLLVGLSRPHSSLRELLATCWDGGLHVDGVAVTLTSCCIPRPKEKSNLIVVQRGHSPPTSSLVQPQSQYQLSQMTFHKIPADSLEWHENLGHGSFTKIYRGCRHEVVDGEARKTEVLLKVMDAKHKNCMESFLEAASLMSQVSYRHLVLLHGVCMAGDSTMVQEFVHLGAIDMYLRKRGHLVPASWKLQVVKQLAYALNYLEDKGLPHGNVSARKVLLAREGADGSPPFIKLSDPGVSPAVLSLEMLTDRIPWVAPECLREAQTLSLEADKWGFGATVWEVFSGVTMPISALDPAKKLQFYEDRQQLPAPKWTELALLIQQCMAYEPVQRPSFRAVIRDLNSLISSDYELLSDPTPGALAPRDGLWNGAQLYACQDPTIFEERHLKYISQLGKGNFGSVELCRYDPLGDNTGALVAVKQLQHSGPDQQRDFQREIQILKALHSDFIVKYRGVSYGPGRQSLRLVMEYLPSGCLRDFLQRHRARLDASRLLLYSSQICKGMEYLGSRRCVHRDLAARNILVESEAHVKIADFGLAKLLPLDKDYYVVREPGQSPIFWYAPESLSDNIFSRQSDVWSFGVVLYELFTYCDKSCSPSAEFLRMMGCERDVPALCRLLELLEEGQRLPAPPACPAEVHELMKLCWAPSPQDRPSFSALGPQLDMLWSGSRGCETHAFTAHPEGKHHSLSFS
Description: Inhibition of JAK3.

In data set [7] the target is Vascular endothelial growth factor receptor 2 (Homo sapiens, UniProt P35968). As to the kind of experiment: Inhibition of KDR.
Vascular endothelial growth factor receptor 2, sequence (P35968 whole entry): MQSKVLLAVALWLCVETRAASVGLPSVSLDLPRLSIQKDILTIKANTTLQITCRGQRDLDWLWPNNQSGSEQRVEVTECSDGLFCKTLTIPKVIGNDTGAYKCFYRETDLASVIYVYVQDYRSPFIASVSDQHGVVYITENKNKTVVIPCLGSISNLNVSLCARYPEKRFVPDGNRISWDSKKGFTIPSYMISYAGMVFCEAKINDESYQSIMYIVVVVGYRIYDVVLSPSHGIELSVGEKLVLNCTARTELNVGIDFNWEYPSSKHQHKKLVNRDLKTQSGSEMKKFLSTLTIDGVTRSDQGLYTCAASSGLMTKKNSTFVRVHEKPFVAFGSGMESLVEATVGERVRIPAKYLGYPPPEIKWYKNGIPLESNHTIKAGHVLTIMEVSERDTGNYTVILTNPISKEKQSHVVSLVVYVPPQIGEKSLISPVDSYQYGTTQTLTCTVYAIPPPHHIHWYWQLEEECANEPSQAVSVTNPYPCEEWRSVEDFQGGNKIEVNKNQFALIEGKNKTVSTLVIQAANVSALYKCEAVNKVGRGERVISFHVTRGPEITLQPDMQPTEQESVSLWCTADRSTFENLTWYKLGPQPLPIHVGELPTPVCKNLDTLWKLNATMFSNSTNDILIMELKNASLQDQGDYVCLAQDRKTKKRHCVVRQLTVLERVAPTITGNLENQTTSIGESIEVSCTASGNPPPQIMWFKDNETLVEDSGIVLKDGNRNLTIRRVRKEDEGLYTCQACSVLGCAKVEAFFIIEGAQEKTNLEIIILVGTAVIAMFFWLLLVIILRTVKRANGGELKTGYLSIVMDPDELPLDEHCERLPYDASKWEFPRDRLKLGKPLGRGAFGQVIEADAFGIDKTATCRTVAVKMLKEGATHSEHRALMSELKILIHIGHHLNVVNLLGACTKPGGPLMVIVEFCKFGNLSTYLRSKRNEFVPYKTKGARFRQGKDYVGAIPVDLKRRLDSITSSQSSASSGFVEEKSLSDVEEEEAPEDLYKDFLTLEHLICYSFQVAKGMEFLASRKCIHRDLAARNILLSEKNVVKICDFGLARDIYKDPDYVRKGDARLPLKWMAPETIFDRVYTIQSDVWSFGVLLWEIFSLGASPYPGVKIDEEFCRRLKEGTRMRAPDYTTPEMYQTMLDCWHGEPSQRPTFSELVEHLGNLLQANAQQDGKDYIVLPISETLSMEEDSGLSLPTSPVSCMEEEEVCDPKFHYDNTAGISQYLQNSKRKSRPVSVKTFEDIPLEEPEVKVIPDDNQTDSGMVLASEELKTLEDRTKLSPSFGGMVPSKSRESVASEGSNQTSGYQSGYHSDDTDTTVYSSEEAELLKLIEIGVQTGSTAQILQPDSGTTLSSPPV
Data set [8] addresses Angiopoietin-1 receptor (Homo sapiens, UniProt Q02763). Description: Inhibition of TIE2.
Data set [9] addresses T1, Activated CDC42 kinase 1. Description: Inhibition of ACK1.
Target sequence in this assay (Q07912 whole entry): as the sequence (Q07912 whole entry) above
Data set [10] deals with T1, Activated CDC42 kinase 1. As to the kind of experiment: Competitive inhibition of ACK1 using ATP.
Target sequence in this assay (Q07912 whole entry, looked up): as the sequence (Q07912 whole entry) above
In data set [11] the target is T1, Activated CDC42 kinase 1. Description: Reversible inhibition of ACK1.
Target sequence in this assay (Q07912 whole entry, looked up): as the sequence (Q07912 whole entry) above
Data set [12] is described as follows: Drug metabolism in rat liver S9 fraction assessed as dithiolane ring oxidation. The data set is classed as ADME, subcellular.
Data set [13] can be described thus: Drug metabolism in rat liver S9 fraction assessed as dimethylamino oxidation. The data set is classed as ADME, subcellular.
Data set [14] has as its target Activated CDC42 kinase 1 (Mus musculus, UniProt O54967). Description: Inhibition of ACK1 in mouse C8 cells assessed as decrease in cell viability after 20 to 24 hrs. The class given is cell-based.

pKi: −log10 of the molar value. Active and inactive are the calls of the source. The rule behind the calls is not given here. A value given as a limit tells only on which side of the number the result lay.

Activated CDC42 kinase 1 (Mus musculus, UniProt O54967), sequence (O54967 whole entry): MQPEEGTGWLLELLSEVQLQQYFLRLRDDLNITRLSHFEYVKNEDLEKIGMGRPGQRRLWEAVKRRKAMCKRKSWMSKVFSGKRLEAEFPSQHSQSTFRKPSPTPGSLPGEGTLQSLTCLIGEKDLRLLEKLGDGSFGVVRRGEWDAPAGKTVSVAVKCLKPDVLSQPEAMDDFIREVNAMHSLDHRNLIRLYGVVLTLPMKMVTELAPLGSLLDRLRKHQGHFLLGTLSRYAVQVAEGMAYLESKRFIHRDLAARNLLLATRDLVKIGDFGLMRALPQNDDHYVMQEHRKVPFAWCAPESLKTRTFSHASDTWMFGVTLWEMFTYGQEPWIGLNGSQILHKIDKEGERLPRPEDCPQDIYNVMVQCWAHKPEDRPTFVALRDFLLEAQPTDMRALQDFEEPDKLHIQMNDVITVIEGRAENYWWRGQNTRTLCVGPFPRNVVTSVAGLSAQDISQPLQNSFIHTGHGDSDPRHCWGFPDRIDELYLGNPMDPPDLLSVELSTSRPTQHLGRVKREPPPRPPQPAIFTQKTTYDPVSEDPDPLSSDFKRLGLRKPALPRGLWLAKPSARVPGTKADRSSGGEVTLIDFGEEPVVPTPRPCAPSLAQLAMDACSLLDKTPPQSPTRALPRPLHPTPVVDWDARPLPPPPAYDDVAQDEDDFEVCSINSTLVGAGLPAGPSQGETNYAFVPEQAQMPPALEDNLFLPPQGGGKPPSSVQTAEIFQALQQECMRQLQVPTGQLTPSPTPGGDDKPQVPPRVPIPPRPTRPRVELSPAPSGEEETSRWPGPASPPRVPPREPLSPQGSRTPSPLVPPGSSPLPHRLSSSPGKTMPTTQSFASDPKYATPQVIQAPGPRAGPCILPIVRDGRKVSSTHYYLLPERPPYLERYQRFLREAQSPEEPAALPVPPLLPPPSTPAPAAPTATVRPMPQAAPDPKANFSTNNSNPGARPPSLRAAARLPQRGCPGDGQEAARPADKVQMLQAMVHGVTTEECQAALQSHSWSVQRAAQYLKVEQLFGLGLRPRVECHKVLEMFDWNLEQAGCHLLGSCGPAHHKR

As to `CN(C)CCOc1ccc(-c2[nH]c3ncnc(NC[C@@H]4CCCO4)c3c2C2=CCCCC2)cc1`, the pKi (in general, the Ki on a negative log10 scale, so that one unit is a factor of ten) in data set [1] is 8.00.
Regarding `CNS(=O)(=O)c1ccc(-c2oc3ncnc(NC[C@@H]4CCCO4)c3c2-c2ccccc2)cc1`, the negative-log Ki (pKi) in [1] is 8.40.
`COc1ccc(-c2oc3ncnc(NC[C@@H]4CCCO4)c3c2-c2ccccc2)cc1`: in [1], the negative logarithm of the Ki (pKi) is 8.30.
For the compound `CN(C)CCOc1ccc(-c2[nH]c3ncnc(NC[C@@H]4CCCO4)c3c2C2=CCCC2)cc1`, the negative logarithm of the Ki (pKi) in data set [1] is 7.70.
Take `CN(C)CCOc1ccc(-c2oc3ncnc(NCC4SCCS4)c3c2-c2ccccc2)cc1`: in [1], the pKi is 9.70.
The same measure, in the same setting: for `CN(C)CCOc1ccc(-c2oc3ncnc(NC[C@@H]4CCCCS4)c3c2-c2ccccc2)cc1` the value was 7.16; for `c1ccc(-c2oc3nccc(NC[C@@H]4CCCO4)c3c2-c2ccccc2)cc1`, 7.15; for `c1ccc(-c2sc3ncnc(NC[C@@H]4CCCO4)c3c2-c2ccccc2)cc1`, under 5.00.
In the case of `CN(C)CCOc1ccc(-c2[nH]c3ncnc(NC[C@@H]4CCCO4)c3c2-c2ccccc2)cc1`, the negative-log Ki (pKi) in data set [1] was 8.22.
Consider `CNS(=O)(=O)c1ccc(-c2[nH]c3ncnc(NC[C@@H]4CCCO4)c3c2-c2ccccc2)cc1`, for which the pKi in data set [1] was 8.70.
As to `CN(C)CCOc1ccc(-c2oc3ncnc(NCC4CCCS4)c3c2-c2ccccc2)cc1` (racemic), the pKi in [1] is 8.10.
Regarding `O=C(c1ccc(-c2oc3ncnc(NC[C@@H]4CCCO4)c3c2-c2ccccc2)cc1)N1CCOCC1`, the negative-log Ki (pKi) in [1] was 8.22.
Regarding `CNC(=O)c1ccc(-c2oc3ncnc(NC[C@@H]4CCCO4)c3c2-c2ccccc2)cc1`, the pKi in [1] is 7.89.
Turning to `O=C1CCCN1CCOc1ccc(-c2[nH]c3ncnc(NC[C@@H]4CCCO4)c3c2-c2ccccc2)cc1`, the pKi in [1] was 8.40.
In the case of `CO[C@@H]1CC[C@H]1CNc1ncnc2[nH]c(-c3ccc(OCCN(C)C)cc3)c(-c3ccccc3)c12` (racemic), the pKi in [1] was 7.70.
Turning to `CN(C)CCOc1ccc(-c2oc3ncnc(NC[C@@H]4CCCO4)c3c2-c2ccccc2)cc1`, in data set [1], the pKi is 8.30.
As to `CN(C)CCOc1ccc(-c2oc3ncnc(NCC4OCCO4)c3c2-c2ccccc2)cc1`, the pKi in data set [1] was 7.89.
For `CN(C)C(=O)c1ccc(-c2[nH]c3ncnc(NC[C@@H]4CCCO4)c3c2-c2ccccc2)cc1`, the pKi in data set [1] is 8.70.
As to `c1ccc(-c2c(-c3ccc(OCCN4CCOCC4)cc3)[nH]c3ncnc(NC[C@@H]4CCCO4)c23)cc1`, in data set [1], the pKi was 8.22.
With `CO[C@@H]1CCC[C@H]1CNc1ncnc2[nH]c(-c3ccc(OCCN(C)C)cc3)c(-c3ccccc3)c12`, in [1], the pKi was 7.30.
Same read-out and setting: then `CNC(=O)c1ccc(-c2[nH]c3ncnc(NC[C@@H]4CCCO4)c3c2-c2ccccc2)cc1`, with 8.52.
Regarding `c1ccc(-c2c(-c3ccc(OCCN4CCCC4)cc3)[nH]c3ncnc(NCC4SCCS4)c23)cc1`, the pKi in [1] was 9.52; in data set [5], 6.86; in data set [6], 8.19; in data set [7], 6.42; in data set [8], 6.70. Also, the clearance (as a rule, the rate of elimination divided by the concentration) in data set [2] was 113 mL/min/kg. Moreover, the Vd in [3] stood at 15.6 L/kg. For the same compound, the MRT (as a rule, a mean duration of stay, worked out from the concentration-time curve) in data set [4] stood at 2.3 h.
On to `CN(C)CCOc1ccc(-c2[nH]c3ncnc(NC[C@@H]4CC[C@H]4O)c3c2-c2ccccc2)cc1` (racemic), for which the negative logarithm of the Ki (pKi) in [1] is 7.52.
With `Nc1ncnc2oc(-c3ccccc3)c(-c3ccccc3)c12`, the pKi in data set [9] was 6.00. For the same compound, the inhibition result in [10] and in data set [11] was “Active” each time.
`c1ccc(-c2c(-c3ccc(OCCN4CCCC4)cc3)[nH]c3ncnc(NC[C@@H]4CCCO4)c23)cc1`: the negative logarithm of the Ki (pKi) in data set [1] was 8.22.
As to `CN(C)C(=O)c1ccc(-c2oc3ncnc(NC[C@@H]4CCCO4)c3c2-c2ccccc2)cc1`, in data set [1], the pKi is 8.00.
In the case of `CS(=O)(=O)c1ccc(-c2oc3ncnc(NC[C@@H]4CCCO4)c3c2-c2ccccc2)cc1`, the pKi in data set [1] is 8.10.
On to `c1ccc(-c2nc3ncnc(NC[C@@H]4CCCO4)n3c2-c2ccccc2)cc1`, for which the negative-log Ki (pKi) in data set [1] was 5.74.
Still for that read-out and setting: then `COc1ccc(-c2[nH]c3ncnc(NC[C@@H]4CCCO4)c3c2-c2ccccc2)cc1`, with 8.22; and `COc1cccc(-c2c(-c3ccc(OCCN4CCCC4)cc3)[nH]c3ncnc(NC[C@@H]4CCCO4)c23)c1`, with 8.00; and `c1ccc(-c2[nH]c3ncnc(NC[C@@H]4CCCO4)c3c2-c2ccccc2)cc1`, with 8.22.
Still for that read-out and setting: then `CO[C@@H]1CCC[C@@H]1CNc1ncnc2[nH]c(-c3ccc(OCCN(C)C)cc3)c(-c3ccccc3)c12`, with 7.30; and `CN(C)CCOc1ccc(-c2oc3ncnc(NCC4SCCCS4)c3c2-c2ccccc2)cc1`, with 8.40.
Same read-out and setting: for `CS(=O)(=O)c1ccc(-c2[nH]c3ncnc(NC[C@@H]4CCCO4)c3c2-c2ccccc2)cc1` the value was 8.15; for `CN(C)S(=O)(=O)c1ccc(-c2[nH]c3ncnc(NC[C@@H]4CCCO4)c3c2-c2ccccc2)cc1`, 8.70; for `O=C1CCCN1CCOc1ccc(-c2oc3ncnc(NC[C@@H]4CCCO4)c3c2-c2ccccc2)cc1`, 8.40.
Consider `O=C(c1ccc(-c2[nH]c3ncnc(NC[C@@H]4CCCO4)c3c2-c2ccccc2)cc1)N1CCOCC1`, for which the negative logarithm of the Ki (pKi) in data set [1] is 8.22.
On the same count and under the same terms, for `Cc1ccccc1-c1c(-c2ccc(OCCN3CCCC3)cc2)[nH]c2ncnc(NC[C@@H]3CCCO3)c12` the value was 7.70; for `c1cncc(-c2c(-c3ccc(OCCN4CCCC4)cc3)[nH]c3ncnc(NC[C@@H]4CCCO4)c23)c1`, 7.40; for `c1ccc(-c2c(-c3ccc(OCCN4CCOCC4)cc3)oc3ncnc(NC[C@@H]4CCCO4)c23)cc1`, 8.40.
With `CN(C)CCOc1ccc(-c2[nH]c3ncnc(NCC4SCCS4)c3c2-c2ccccc2)cc1`, in data set [2], the clearance is 125 mL/min/kg. Further, the Vd in data set [3] came out at 26.6 L/kg. The mean residence time MRT in [4] turned out to be 3.6 h. In addition, the Drug metabolism result in data set [12] and in data set [13] was “Active” in each case.
With `CN(C)CCOc1ccc(-c2[nH]c3ncnc(NC[C@@H]4CCCO4)c3c2C2CC2)cc1`, in [1], the negative logarithm of the Ki (pKi) is 5.70. Further, the IC50 entry in data set [14] was “Not Active”.
For `c1ccc(-c2nc3ncnc(NC[C@@H]4CCCO4)c3n2-c2ccccc2)cc1`, the pKi in [1] was 5.14.
On the same count and under the same terms, for `Fc1ccccc1-c1c(-c2ccc(OCCN3CCCC3)cc2)[nH]c2ncnc(NC[C@@H]3CCCO3)c12` the value was 8.40.

The values are drawn from ChEMBL document CHEMBL2086246, “Synthesis and optimization of substituted furo[2,3-d]-pyrimidin-4-amines and 7H-pyrrolo[2,3-d]pyrimidin-4-amines as ACK1 inhibitors” (Bioorg Med Chem Lett, 2012).
